Tests used:
Assay type in all cases: in vivo
[1] = test system: Myzus persicae; assay: Field trials by third-party organisations
Experimental: (§1) Field trials for peptide SB-P-65, unformulated, against various insects were conducted by third-party organisations PGRO and AgriScience.

[2] = test system: bees; assay: Bee oral toxicity test adapted from OECD Test No. 247 (Bumblebee, Acute Oral Toxicity Test); settings: % survival after 96 hours of application; FIG. 10
Experimental: Bee oral testing protocol was carried out adapted from OECD Test No. 247: Bumblebee, Acute Oral Toxicity Test. The toxicity of SB-P-65 was compared with a negative control of sucrose or vehicle, and with a current commercial insecticide Imidacloprid.

[3] = test system: Aphis gossypii; assay: Field trials (AgriScience) on cotton and melon, naturally infested
Experimental: as §1

[4] = test system: Myzus persicae; assay: Leaf dip assay (IRAC susceptibility test method 019), mortality assessment; settings: unformulated or with Silwet-408 adjuvant; mortality assessed at 72, 96 and 120 hours; FIGS. 6-8
Experimental: The assay was carried out based on IRAC susceptibility test method 019 (irac-online.org/methods/aphids-adultnymphs/).
Fill a small 4 cm wide 3 cm high dish with a 1% agar treatment solution of the active chemical or control (ensuring 1 cm gap between the agar and the lid) and leave to set. Dip a 2.5 cm leaf disc into 3 ml of treatment solution allowing the treatment to coat the leaf. Leave the disc to dry for 1 hour and place onto the set agar. Place insects (M. persicae aphids) onto each of the leaf discs. Each unit is sealed with a close-fitting, ventilated lid. Place the agar dishes in a small plastic tray lined with moist tissue paper and ensure the water trays in the bottom of the incubator are filled with clean water and place within the incubator. An assessment of mortality is made at 72, 96 and 120 hours. Leaf dip assays were performed with SB-P-65, and compared to a negative control vehicle and a current commercial insecticide Spirotetramat. The activity of SB-P-65 is shown in FIGS. 6-8; SB-P-65 has good activity whilst being eco-friendly and targeted to specific pests unlike broad spectrum chemical insecticides such as Spirotetramat.

[5] = test system: Aphis fabae; assay: Field trials (PGRO) on vining peas, naturally infested
Experimental: as §1

[6] = versus Stealth/Aphox, Teppeki/Aphox, Profil Extra, Hallmark Zeon

SMILES: CC(C)[C@H](NC(=O)[C@@H](NC(=O)[C@H](CCCCN)NC(=O)[C@H](CCC(N)=O)NC(=O)[C@@H](N)CCCNC(=N)N)[C@@H](C)O)C(=O)N[C@@H](Cc1ccccc1)C(=O)N[C@@H](CO)C(=O)N[C@@H](CO)C(=O)N[C@@H](Cc1c[nH]c2ccccc12)C(=O)NCC(N)=O [SB-P-65, [Hy]-RQKTVFSSWG-[NH2]]
- efficacy in field trials against Myzus persicae ([1]; unformulated, real-world conditions): good efficacy
- efficacy relative to commercial insecticides, Myzus persicae field trials [1, 6]: comparably to commercial insecticides
- toxicity to bees (oral), compared to Imidacloprid [2]: far lower toxicity
- efficacy in field trials against Aphis gossypii ([3]; unformulated, cotton, melon, real-world conditions, FIGS. 12, 13): good efficacy
- efficacy relative to commercial insecticides, Aphis gossypii field trials [3, 6]: comparably to commercial insecticides
- activity against Myzus persicae (mortality) in leaf dip assay [4]: good activity
- efficacy in field trials against Aphis fabae ([5]; unformulated, vining peas, real-world conditions, FIGS. 11, 14): good efficacy
- efficacy relative to commercial insecticides, Aphis fabae field trials [5, 6]: comparably to commercial insecticides
